These results are taken from US12643847B2, “Treprostinil derivatives and compositions and uses thereof” (CORSAIR PHARMA, INC., priority 2015, dated 2026).

The nature of data set [1]: Human plasma stability assay (Test 2). The format is in vitro ADME. The note with it: half-life in heparinated human plasma, 0.5 μM test compound, 37° C.; read-out: Test 2 T1/2. On the procedure:
(Test 2) Human plasma stability assay was conducted by incubating 0.5 μM test compound at 37° C. for up to 120 min in heparinated human plasma. At 0, 5, 15, 30, 60, 120 and […], an aliquot was taken and quenched with internal standard-containing stop solution. After incubation, the samples were analyzed by LC-MS/MS. Peak area ratios of analyte to internal standard were used to calculate the half-life.

A short description of data set [2]: Human skin homogenate stability assay (Test 3). To be noted: half-life in human skin homogenate, 0.5 μM test compound, 37° C., up to 45 min, NADPH-generating system, pH 7.4; read-out: Test 3 T1/2. The format is in vitro ADME. On the procedure:
At 0, 5, 15, 30 and 45 min, an aliquot was taken and quenched with internal standard-containing stop solution. No co-factor controls at 45 min were prepared. After incubation, the samples were analyzed by LC-MS/MS. Peak area ratios of analyte to internal standard were used to calculate the intrinsic clearance. The intrinsic clearance (CLin t) was determined from the first-order elimination constant by non-linear regression.

Data set [3] is described as follows: Human liver microsomal stability assay (Test 1). The format is in vitro ADME. The note with it: half-life in human liver microsomes, 0.5 μM test compound, 37° C., up to 45 min, NADPH-generating system, pH 7.4; read-out: Test 1 T1/2. On the procedure:
(Test 1) Human liver microsomal stability assay was conducted by incubating 0.5 μM test compound at 37° C. for up to 45 minutes in 50 mM potassium phosphate buffer (pH 7.4) containing 0.5 mg of microsomal protein and 50 μL of NADPH-generating system (7.8 mg of glucose 6-phosphate, 1.7 mg of NADPH and 6 U of glucose 6-phosphate dehydrogenase per mL in 2% w/v of sodium bicarbonate). At 0, 5, 15, 30 and 45 min, an aliquot was taken and quenched with internal standard-containing stop solution. No co-factor controls at 45 min were prepared. After incubation, the samples were analyzed by LC-MS/MS. Peak area ratios of analyte to internal standard were used to calculate the intrinsic clearance. The intrinsic clearance (CLint) was determined from the first-order elimination constant by non-linear regression.
Background: Microsomes from liver hold many membrane-bound enzymes, among them those of drug oxidation.

For the next data set, the system named is PAH patients. The note with it: inhaled form; cited from earlier work.
For data set [4] the following is noted: treprostinil as the free acid, cited from earlier work.

For `CCCCC[C@H](O)CC[C@@H]1[C@H]2Cc3cccc(OCC(=O)O[C@H](C)C(=O)O)c3C[C@H]2C[C@H]1O` [II-2], the half-life at 0.5 μM was over 1 h in data set [1], over 1 h in data set [2] and 0.517 to 1 h in data set [3].
Take `CCCCC[C@H](O)CC[C@@H]1[C@H]2Cc3cccc(OCC(=O)O)c3C[C@H]2C[C@H]1OC(=O)CC` [Compound Ia-1]: the half-life at 0.5 μM in data set [1] is over 1 h; in data set [2], over 1 h; in data set [3], under 0.25 h.
For the compound `CCCCC[C@H](O)CC[C@@H]1[C@H]2Cc3cccc(OCC(=O)O)c3C[C@H]2C[C@H]1OC(=O)COCC` [Ia-9], the half-life at 0.5 μM in data set [1] is over 1 h; in data set [2], over 1 h; in data set [3], under 0.25 h.
In the case of `CCCCC[C@@H](CC[C@@H]1[C@H]2Cc3cccc(OCC(=O)O)c3C[C@H]2C[C@H]1O)OC(=O)COC` [Compound Ib-8, {2-hydroxy-1-[3-(2-methoxyacetoxy)octyl]-2,3,3a,4,9,9a-hexahydro-1H-cyclopenta[b]naphthalen-5-yloxy}acetic acid], the half-life at 0.5 μM in data set [1] is over 1 h; in data set [2] it was over 1 h; in data set [3], under 0.25 h.
For `CCCCC[C@H](O)CC[C@@H]1[C@H]2Cc3cccc(OCC(=O)O)c3C[C@H]2C[C@H]1O` [Compound A, Treprostinil], the “PAH patients who cannot take inhaled treprostinil due to irritation” value in the data set with PAH patients is listed as “about 50%”. The absolute oral bioavailability entry in data set [4] (oral) is “less than 10%”. The systemic half-life entry in data set [4] (due to significant metabolism) is listed as “very short”.
Turning to `CCCCC[C@H](O)CC[C@@H]1[C@H]2Cc3cccc(OCC(=O)OCC(=O)O)c3C[C@H]2C[C@H]1O` [II-1], the results for the half-life at 0.5 μM in data set [1], in data set [2] and in data set [3] were over 1 h, over 1 h and 0.517 to 1 h, respectively.
With `CCCCCC(O)CCC1C(O)CC2Cc3c(cccc3OCC(=O)OCCC(=O)O)CC21` (stereo not drawn) [II-4, 3-{2-[2-hydroxy-1-(3-hydroxyoctyl)-2,3,3a,4,9,9a-hexahydro-1H-cyclopenta[b]naphthalen-5-yloxy]acetoxy}propionic acid], the half-life at 0.5 μM in data set [1] is over 1 h; in data set [2] it was over 1 h; in data set [3], 0.25 to 0.5 h.
In the case of `CCCCC[C@H](O)CC[C@@H]1[C@H]2Cc3cccc(OCC(=O)O)c3C[C@H]2C[C@H]1OC(=O)CCCC` [Ia-3], the half-life at 0.5 μM is over 1 h in data set [1], over 1 h in data set [2] and under 0.25 h in data set [3].
As for `CCCCC[C@H](O)CC[C@@H]1[C@H]2Cc3cccc(OCC(=O)O)c3C[C@H]2C[C@H]1OC(=O)OC` [Compound Ia-10, [1-(3-hydroxyoctyl)-2-methoxycarbonyloxy-2,3,3a,4,9,9a-hexahydro-1H-cyclopenta[b]naphthalen-5-yloxy]acetic acid], the half-life at 0.5 μM was over 1 h in data set [1], over 1 h in data set [2] and under 0.25 h in data set [3].
